From patent publication US9896418B2, “Aryl ethers and uses thereof” (Peloton Therapeutics, Inc., priority 2013, dated 2018)
pIC50: −log10 of the molar value.

tested on: HIF-2α HIS TAG-PASB Domain; assay: HIF-2α Scintillation Proximity Assay (SPA); type: binding
Experimental: The percent inhibition was determined and IC50 values were calculated using the Dotmatics system based on the following equation: % inhibition=[(high control−sample)/(high control−low control)]×100.

Row | Structure (SMILES) | pIC50
1 | O=S(=O)(c1ccc(Oc2cc(F)cc(F)c2)c2c1C(O)C(F)(F)C2)C(F)F (stereo not drawn) [Compound 9, 7-(difluoromethylsulfonyl)-4-(3,5-difluorophenoxy)-2,2-difluoro-indan-1-ol] | > 8.30
2 | Cc1cc(C)cc(Oc2ccc(S(=O)(=O)C(F)(F)F)cc2Br)c1 [Compound 173, 2-Bromo-1-(3,5-dimethylphenoxy)-4-((trifluoromethyl)sulfonyl)benzene] | 5.70
3 | Cc1cc(S(=O)(=O)C(F)F)ccc1Oc1cc(F)cc(C#N)c1 [Compound 136, 3-[4-(Difluoromethylsulfonyl)-2-methyl-phenoxy]-5-fluoro-benzonitrile] | 6.64
4 | O=S(=O)(c1ccc(Oc2ccc(F)c(F)c2)c2c1[C@H](O)C(F)(F)C2)C(F)(F)F [Example 233, (S)-4-(3,4-Difluorophenoxy)-2,2-difluoro-7-((trifluoromethyl)sulfonyl)-2,3-dihydro-1H-inden-1-ol] | > 8.30
5 | CO[C@H]1c2c(S(C)(=O)=O)ccc(Oc3cc(F)cc(C#N)c3)c2CC1(F)F [Compound 210, (S)-3-((2,2-Difluoro-1-methoxy-7-(methylsulfonyl)-2,3-dihydro-1H-inden-4-yl)oxy)-5-fluorobenzonitrile] | 4.77
6 | N#Cc1cncc(Oc2ccc(S(=O)(=O)CF)c3c2[C@@H](F)C(F)(F)[C@H]3O)c1 [Compound 344, 5-(((1S,3R)-2,2,3-trifluoro-7-((fluoromethyl)sulfonyl)-1-hydroxy-2,3-dihydro-1H-inden-4-yl)oxy)nicotinonitrile] | 8.17
7 | O=S(=O)(CF)c1ccc(Oc2cc(F)cc(Cl)c2)c(Br)c1 [Compound 137, 2-Bromo-1-(3-chloro-5-fluorophenoxy)-4-((fluoromethyl)sulfonyl)benzene] | 6.25
8 | O=C1c2c(S(=O)(=O)C(F)F)ccc(Oc3ccc(F)c(Br)c3)c2CC1(F)F [Compound 193, 4-(3-Bromo-4-fluorophenoxy)-7-((difluoromethyl)sulfonyl)-2,2-difluoro-2,3-dihydro-1H-inden-1-one] | 6.05
9 | O=C1CCc2c(Oc3cc(F)cc(Cl)c3)ccc(S(=O)(=O)C(F)F)c21 [Compound 18, 4-(3-chloro-5-fluorophenoxy)-7-((difluoromethyl)sulfonyl)-2,3-dihydro-1H-inden-1-one] | 6.92
10 | CS(=O)(=O)c1ccc(Oc2cc(F)cc(C#N)c2)c2c1[C@H](O)[C@H](F)[C@@H]2O [Compound 296, 3-fluoro-5-[(1S,2R,3R)-2-fluoro-1,3-dihydroxy-7-methylsulfonyl-indan-4-yl]oxy-benzonitrile] | 5.89
11 | CC(C)(C)OC(=O)NCc1c(S(=O)(=O)C(F)F)ccc(Oc2cc(F)cc(Cl)c2)c1Br [Compound 83, tert-butyl (2-bromo-3-(3-chloro-5-fluorophenoxy)-6-((difluoromethyl)sulfonyl)benzyl)carbamate] | 5.49
12 | CC(=O)NCc1c(S(=O)(=O)C(F)F)ccc(Oc2cc(F)cc(Cl)c2)c1Br [Compound 86, N-(2-Bromo-3-(3-chloro-5-fluorophenoxy)-6-((difluoromethyl)sulfonyl)benzyl)acetamide] | 4.15
13 | N#Cc1cc(Oc2ccc(S(=O)(=O)C(F)(F)F)c3c2CC(F)(F)[C@H]3O)ccc1F [Example 228, (S)-5-((2,2-Difluoro-1-hydroxy-7-((trifluoromethyl)sulfonyl)-2,3-dihydro-1H-inden-4-yl)oxy)-2-fluorobenzonitrile] | 7.40
14 | CS(=O)(=O)c1ccc(Oc2cncc(C#N)c2)c2c1[C@H](O)C(F)(F)[C@@H]2F [Compound 342, 5-(((1S,3R)-2,2,3-trifluoro-1-hydroxy-7-(methylsulfonyl)-2,3-dihydro-1H-inden-4-yl)oxy)nicotinonitrile] | 7.40
15 | CS(=N)(=O)c1ccc(Oc2cc(F)cc(F)c2)c2c1C(O)CC2 (stereo not drawn) [Compound 190, (7-(3,5-Difluorophenoxy)-3-hydroxy-2,3-dihydro-1H-inden-4-yl)(imino)(methyl)-λ^6-sulfanone] | 6.24
16 | NCc1c(S(=O)(=O)C(F)F)ccc(Oc2cc(F)cc(Cl)c2)c1Br [Compound 85, (2-Bromo-3-(3-chloro-5-fluorophenoxy)-6-((difluoromethyl)sulfonyl)phenyl)methanamine] | 5.54
17 | O=S(=O)(c1ccc(Oc2cc(F)cc(Cl)c2)c(Cl)c1CNCC(F)(F)F)C(F)F [Compound 47, N-(2-Chloro-3-(3-chloro-5-fluorophenoxy)-6-((difluoromethyl)sulfonyl)benzyl)-2,2,2-trifluoroethan-1-amine] | 5.05
18 | N#CN=S(=O)(CF)c1ccc(Oc2cc(F)cc(C#N)c2)c2c1[C@H](O)C(F)(F)C2 (single isomer, unassigned) [Example 285] | 7.15
19 | N#Cc1cc(F)cc(Oc2ccc(Br)c3c2C(F)(F)C(F)(F)C3)c1 [Compound 248, 3-((7-Bromo-2,2,3,3-tetrafluoro-2,3-dihydro-1H-inden-4-yl)oxy)-5-fluorobenzonitrile] | 4.77
20 | Cc1c(Oc2cc(F)cc(C#N)c2)ccc(S(=O)(=O)C(F)(F)F)c1/C=C/C(=O)NCc1ccccc1 [Compound 149, (E)-N-Benzyl-3-(3-(3-cyano-5-fluorophenoxy)-2-methyl-6-((trifluoromethyl)sulfonyl)phenyl)acrylamide] | 5.24

Row | Structure (SMILES) | pIC50
21 | Cc1c(S(C)(=O)=O)ccc(Oc2cc(F)cc(Cl)c2)c1C(F)F [Compound 53, 1-(3-Chloro-5-fluorophenoxy)-2-(difluoromethyl)-3-methyl-4-(methylsulfonyl)benzene] | 6.48
22 | Fc1cc(Cl)cc(Oc2ccc(C(F)(F)F)c(Cl)c2Br)c1 [Compound 97, 2-Bromo-3-chloro-1-(3-chloro-5-fluorophenoxy)-4-(trifluoromethyl)benzene] | 5.66
23 | N#Cc1cc(F)cc(Oc2ccc(S(=O)(=O)C(F)F)c(CO)c2Br)c1 [Compound 80, 3-(2-Bromo-4-((difluoromethyl)sulfonyl)-3-(hydroxymethyl)phenoxy)-5-fluorobenzonitrile] | 7.66
24 | CC(=NO)c1c(S(=O)(=O)C(F)(F)F)ccc(Oc2cc(F)cc(Cl)c2)c1Br [Compound 106, 1-(2-Bromo-3-(3-chloro-5-fluorophenoxy)-6-((trifluoromethyl)sulfonyl)phenyl)ethan-1-one oxime] | 6.00
25 | CS(=N)(=O)c1ccc(Oc2cc(F)cc(Cl)c2)c(C#N)c1Cl (stereo not drawn) [Compound 180, 2-Chloro-6-(3-chloro-5-fluorophenoxy)-3-(S-methylsulfonimidoyl)benzonitrile] | 5.03
26 | N#Cc1c(I)ccc(Oc2cc(F)cc(Cl)c2)c1Br [Compound 96, 2-Bromo-3-(3-chloro-5-fluorophenoxy)-6-iodobenzonitrile] | 5.51
27 | COC(=O)c1c([S+]([O-])C(F)F)ccc(Oc2cc(F)cc(Cl)c2)c1Br (stereo not drawn) [Compound 82, Methyl 2-bromo-3-(3-chloro-5-fluorophenoxy)-6-((difluoromethyl)sulfinyl)benzoate] | 4.82
28 | NS(=O)(=O)c1ccc(Oc2cncc(F)c2)c2c1[C@H](O)C(F)(F)[C@@H]2F [Compound 341, (1R,3S)-1,2,2-trifluoro-7-[(5-fluoro-3-pyridyl)oxy]-3-hydroxy-indane-4-sulfonamide] | 7.74
29 | O=S(=O)(c1ccc(Oc2cc(F)cc(Cl)c2)c(Br)c1C=NO)C(F)(F)F [Compound 107, 2-Bromo-3-(3-chloro-5-fluorophenoxy)-6-((trifluoromethyl)sulfonyl)benzaldehyde oxime] | 6.80
30 | CC(=O)c1c(S(=O)(=O)C(F)(F)F)ccc(Oc2cc(F)cc(Cl)c2)c1Br [Compound 104, 1-(2-Bromo-3-(3-chloro-5-fluorophenoxy)-6-((trifluoromethyl)sulfonyl)phenyl)ethan-1-one] | 6.57
31 | O=S(=O)(c1ccc(Oc2cc(Cl)c[n+]([O-])c2)c2c1[C@H](O)C(F)(F)C2)C(F)(F)F [Example 260, (S)-3-Chloro-5-((2,2-difluoro-1-hydroxy-7-((trifluoromethyl)sulfonyl)-2,3-dihydro-1H-inden-4-yl)oxy)pyridine 1-oxide] | 7.18
32 | CNCc1c(S(=O)(=O)C(F)(F)F)ccc(Oc2cc(F)cc(Cl)c2)c1Br [Compound 109, 1-(2-Bromo-3-(3-chloro-5-fluorophenoxy)-6-((trifluoromethyl)sulfonyl)phenyl)-N-methylmethanamine] | 5.68
33 | CS(=O)(=O)c1ccc(Oc2cc(F)cc(C#N)c2)c2c1[C@H](O)C(F)(F)[C@H]2O [Compound 311, 3-[(1S,3S)-2,2-difluoro-1,3-dihydroxy-7-methylsulfonyl-indan-4-yl]oxy-5-fluoro-benzonitrile] | 5.06
34 | CS(=O)(=O)c1ccc(Oc2cc(C#N)cc(C(F)F)c2)c2c1C(O)CC2 (stereo not drawn) [Compound 249, 3-(Difluoromethyl)-5-((1-hydroxy-7-(methylsulfonyl)-2,3-dihydro-1H-inden-4-yl)oxy)benzonitrile] | 6.06
35 | CS(=O)(=NC#N)c1ccc(Oc2cc(F)cc(C#N)c2)c2c1[C@H](O)C(F)(F)[C@H]2F (stereo partly drawn) [Compound 318, [[(1S,3S)-7-(3-cyano-5-fluoro-phenoxy)-1,2,2-trifluoro-3-hydroxy-indan-4-yl]-methyl-oxo-λ^6-sulfanylidene]cyanamide] | 5.62
36 | CS(=O)(=O)c1ccc(Oc2cc(F)cc(C#N)c2)c2c1C(=O)C(F)(Cl)C2 (stereo not drawn) [Compound 269, 3-((2-chloro-2-fluoro-7-(methylsulfonyl)-1-oxo-2,3-dihydro-1H-inden-4-yl)oxy)-5-fluorobenzonitrile] | 6.51
37 | O=C1c2c(S(=O)(=O)C(F)F)ccc(Oc3ccc(F)c(F)c3)c2CC1(F)F [Compound 195, 7-((Difluoromethyl)sulfonyl)-4-(3,4-difluorophenoxy)-2,2-difluoro-2,3-dihydro-1H-inden-1-one] | 6.96
38 | O=S(=O)(c1ccc(Oc2cc(F)cc(F)c2)c2c1C=CC2)C(F)F [Compound 21, 4-((Difluoromethyl)sulfonyl)-7-(3,5-difluorophenoxy)-1H-indene] | 6.85
39 | CS(=O)(=O)c1ccc(Oc2cc(F)cc(F)c2)c(C(F)F)c1C#N [Compound 93, 2-(Difluoromethyl)-3-(3,5-difluorophenoxy)-6-(methylsulfonyl)benzonitrile] | 6.77
